Data on 15 compounds can be found in ChEMBL document CHEMBL4725339, “Discovery of USP7 small-molecule allosteric inhibitors” (Bioorg Med Chem Lett, 2020).

The target in data set [1] is T1, Ubiquitin carboxyl-terminal hydrolase 7 (Homo sapiens, UniProt Q93009). The data set is described as follows: Inhibition of recombinant full length USP7 (unknown origin) using di-ubiquitin as substrate by fluorescence based assay.
Target sequence in this assay (Q93009 whole entry): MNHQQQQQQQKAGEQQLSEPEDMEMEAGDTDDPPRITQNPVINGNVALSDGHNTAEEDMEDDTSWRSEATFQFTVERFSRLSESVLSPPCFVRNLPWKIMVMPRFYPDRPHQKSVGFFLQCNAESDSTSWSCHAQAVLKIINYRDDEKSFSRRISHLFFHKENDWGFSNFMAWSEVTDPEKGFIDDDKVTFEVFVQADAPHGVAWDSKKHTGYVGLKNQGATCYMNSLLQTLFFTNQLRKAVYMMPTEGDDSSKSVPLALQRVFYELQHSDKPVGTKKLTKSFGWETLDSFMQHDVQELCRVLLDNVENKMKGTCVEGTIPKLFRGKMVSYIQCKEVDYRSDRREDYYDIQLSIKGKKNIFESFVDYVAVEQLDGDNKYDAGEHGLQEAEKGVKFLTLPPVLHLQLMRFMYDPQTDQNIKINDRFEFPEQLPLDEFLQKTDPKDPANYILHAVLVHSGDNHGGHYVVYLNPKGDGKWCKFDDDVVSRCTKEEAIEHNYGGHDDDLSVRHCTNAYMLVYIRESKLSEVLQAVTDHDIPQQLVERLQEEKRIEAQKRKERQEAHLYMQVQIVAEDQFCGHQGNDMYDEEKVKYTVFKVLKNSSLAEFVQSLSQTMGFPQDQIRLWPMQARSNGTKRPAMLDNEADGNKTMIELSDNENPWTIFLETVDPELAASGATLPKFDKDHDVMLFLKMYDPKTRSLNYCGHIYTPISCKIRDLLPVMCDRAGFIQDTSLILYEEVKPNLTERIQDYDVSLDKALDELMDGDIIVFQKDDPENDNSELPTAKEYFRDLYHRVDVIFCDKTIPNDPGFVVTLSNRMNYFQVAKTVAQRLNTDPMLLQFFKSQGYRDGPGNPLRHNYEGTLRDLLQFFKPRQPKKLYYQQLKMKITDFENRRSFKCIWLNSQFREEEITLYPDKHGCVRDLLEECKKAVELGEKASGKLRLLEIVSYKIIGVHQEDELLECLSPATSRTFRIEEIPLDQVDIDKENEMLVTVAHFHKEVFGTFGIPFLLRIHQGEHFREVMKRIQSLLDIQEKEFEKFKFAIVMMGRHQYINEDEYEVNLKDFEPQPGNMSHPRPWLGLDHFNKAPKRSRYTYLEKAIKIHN
Data set [2] deals with T2, Ubiquitin carboxyl-terminal hydrolase 47 (Homo sapiens, UniProt Q96K76).
T2 sequence (Q96K76 whole entry): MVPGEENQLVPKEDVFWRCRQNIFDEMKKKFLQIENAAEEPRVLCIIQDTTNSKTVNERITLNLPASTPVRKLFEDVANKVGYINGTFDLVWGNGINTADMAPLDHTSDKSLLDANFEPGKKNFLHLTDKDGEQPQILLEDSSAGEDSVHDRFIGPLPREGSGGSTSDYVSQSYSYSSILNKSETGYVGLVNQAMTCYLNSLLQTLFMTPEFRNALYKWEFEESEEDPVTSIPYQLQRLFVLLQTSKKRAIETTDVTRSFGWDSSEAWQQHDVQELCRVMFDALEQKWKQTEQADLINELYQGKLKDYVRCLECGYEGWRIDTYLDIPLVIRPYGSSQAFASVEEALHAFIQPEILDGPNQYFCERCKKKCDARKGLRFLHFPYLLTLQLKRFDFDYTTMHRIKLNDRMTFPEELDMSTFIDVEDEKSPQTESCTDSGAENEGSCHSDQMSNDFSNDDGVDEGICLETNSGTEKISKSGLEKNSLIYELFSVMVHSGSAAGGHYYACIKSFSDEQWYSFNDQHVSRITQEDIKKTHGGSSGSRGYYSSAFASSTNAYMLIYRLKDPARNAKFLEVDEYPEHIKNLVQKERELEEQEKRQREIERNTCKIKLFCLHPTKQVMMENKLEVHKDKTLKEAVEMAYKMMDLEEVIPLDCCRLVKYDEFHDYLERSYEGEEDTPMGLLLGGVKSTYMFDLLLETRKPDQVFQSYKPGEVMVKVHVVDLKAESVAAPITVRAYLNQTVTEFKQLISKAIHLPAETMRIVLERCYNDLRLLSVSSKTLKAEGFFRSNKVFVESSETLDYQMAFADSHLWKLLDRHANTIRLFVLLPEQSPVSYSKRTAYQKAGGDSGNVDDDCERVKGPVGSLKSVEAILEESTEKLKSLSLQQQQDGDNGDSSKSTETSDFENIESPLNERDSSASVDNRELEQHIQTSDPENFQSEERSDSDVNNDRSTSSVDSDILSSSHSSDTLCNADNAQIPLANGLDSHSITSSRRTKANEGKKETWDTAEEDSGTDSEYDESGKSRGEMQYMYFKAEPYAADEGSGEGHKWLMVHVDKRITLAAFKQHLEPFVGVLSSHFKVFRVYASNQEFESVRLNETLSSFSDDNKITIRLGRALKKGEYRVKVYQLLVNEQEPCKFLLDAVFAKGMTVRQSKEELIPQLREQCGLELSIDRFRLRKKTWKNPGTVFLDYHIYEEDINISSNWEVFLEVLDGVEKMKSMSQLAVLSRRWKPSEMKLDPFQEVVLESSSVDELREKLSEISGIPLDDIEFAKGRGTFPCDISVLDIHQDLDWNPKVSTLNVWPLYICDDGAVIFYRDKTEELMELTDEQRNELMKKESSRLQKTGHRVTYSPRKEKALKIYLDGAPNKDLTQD
Description: Inhibition of USP47 (unknown origin).

The target of data set [3] is T3, Ubiquitin carboxyl-terminal hydrolase 1 (Homo sapiens, UniProt O94782).
T3 sequence (O94782 whole entry): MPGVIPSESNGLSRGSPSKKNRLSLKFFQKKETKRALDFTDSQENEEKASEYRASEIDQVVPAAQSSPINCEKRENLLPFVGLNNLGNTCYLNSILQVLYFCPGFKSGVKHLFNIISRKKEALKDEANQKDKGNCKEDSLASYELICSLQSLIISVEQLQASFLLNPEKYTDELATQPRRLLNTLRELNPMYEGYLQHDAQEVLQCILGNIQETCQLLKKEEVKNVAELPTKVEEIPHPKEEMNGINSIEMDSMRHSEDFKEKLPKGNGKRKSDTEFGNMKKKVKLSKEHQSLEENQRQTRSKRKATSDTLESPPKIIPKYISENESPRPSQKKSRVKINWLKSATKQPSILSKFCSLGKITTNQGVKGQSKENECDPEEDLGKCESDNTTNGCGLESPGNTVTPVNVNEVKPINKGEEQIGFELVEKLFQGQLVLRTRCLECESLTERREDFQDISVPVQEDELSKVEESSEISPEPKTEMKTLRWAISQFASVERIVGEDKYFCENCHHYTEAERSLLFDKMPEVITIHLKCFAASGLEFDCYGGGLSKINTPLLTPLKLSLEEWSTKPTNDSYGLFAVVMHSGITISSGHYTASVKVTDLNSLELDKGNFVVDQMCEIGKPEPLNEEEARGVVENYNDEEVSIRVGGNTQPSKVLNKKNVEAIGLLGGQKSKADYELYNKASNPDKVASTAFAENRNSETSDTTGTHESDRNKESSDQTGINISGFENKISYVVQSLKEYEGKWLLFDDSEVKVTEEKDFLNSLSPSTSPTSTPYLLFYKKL
Description: Inhibition of USP1 (unknown origin).

Data set [4] concerns the target Ubiquitin carboxyl-terminal hydrolase 14 (Homo sapiens, UniProt P54578). Description: Inhibition of USP14 (unknown origin).
Data set [5] is filed under the species Homo sapiens. Description: Selectivity index, ratio of IC50 for USP47 (unknown origin) to IC50 for recombinant full length USP7 (unknown origin) using di-ubiquitin as substrate by fluorescence based assay.
Data set [6] is filed under the species Homo sapiens. The data set is described as follows: Selectivity index, ratio of IC50 for USP1 (unknown origin) to IC50 for recombinant full length USP7 (unknown origin) using di-ubiquitin as substrate by fluorescence based assay.
The species entered for data set [7] is Homo sapiens. Description: Selectivity index, ratio of IC50 for USP14 (unknown origin) to IC50 for recombinant full length USP7 (unknown origin) using di-ubiquitin as substrate by fluorescence based assay.
Data set [8] concerns the target T1, Ubiquitin carboxyl-terminal hydrolase 7. Description: Inhibition of recombinant human C-terminal His-tagged N-terminal GST-tagged full length USP7 using di-ubiquitin as substrate preincubated for 10 mins followed by substrate addition and measured after 60 mins by TR-FRET assay.
Target sequence in this assay (Q93009 whole entry): as the sequence (Q93009 whole entry) above
Data set [9] is described as follows: Aqueous solubility of compound. It is filed as physicochemical. The note with it: water (aqueous).
The target in data set [10] is T1, Ubiquitin carboxyl-terminal hydrolase 7. Description: Allosteric binding affinity to USP7 catalytic domain (unknown origin) at His403, Gln351, Leu304, Ser353, Met328, Trp285 and Gly284 residues at 1.12 mM by NMR-15N-1H TROSY spectral titration analysis.
Target sequence in this assay (Q93009 whole entry, looked up): as the sequence (Q93009 whole entry) above
Data set [11] has the same target. The data set is described as follows: Allosteric binding affinity to USP7 catalytic domain (unknown origin) at Met328, Trp285, Gly284, Gln405 and Gly313 residues by NMR-15N-1H TROSY spectral titration analysis.
Target sequence in this assay (Q93009 whole entry): as the sequence (Q93009 whole entry) above
Data set [12] has the same target. Description: Allosteric binding affinity to USP7 catalytic domain (unknown origin) at Met328 residues by NMR-15N-1H TROSY spectral titration analysis.
Target sequence in this assay (Q93009 whole entry): as the sequence (Q93009 whole entry) above
Data set [13] has the same target. Description: Binding affinity to USP7 (unknown origin) by T2 relaxation experiment based analysis.
Target sequence in this assay (Q93009 whole entry): as the sequence (Q93009 whole entry) above
For data set [14] the target is unchanged. Description: Binding affinity to USP7 (unknown origin) by 1H-NMR-STD analysis.
Target sequence in this assay (Q93009 whole entry, looked up): as the sequence (Q93009 whole entry) above
The target is the same in data set [15]. The data set is described as follows: Binding affinity to USP7 (unknown origin) by 1H-1H-NOESY experiment based analysis.
Target sequence in this assay (Q93009 whole entry, looked up): as the sequence (Q93009 whole entry) above
For data set [16] the target is unchanged. The data set is described as follows: Inhibition of recombinant human His-tagged USP7 (208 to 560 residues) expressed in Hi-five Sf9 cells using monoubiquitinated ubiquitin-rhodamine as substrate incubated for 1 hr by fluorescence based assay.
Target sequence in this assay (Q93009 whole entry): as the sequence (Q93009 whole entry) above

Activity calls are given as the source filed them. No cut-off for these calls is given here.

Chain of Ubiquitin carboxyl-terminal hydrolase 14 (P54578 whole entry): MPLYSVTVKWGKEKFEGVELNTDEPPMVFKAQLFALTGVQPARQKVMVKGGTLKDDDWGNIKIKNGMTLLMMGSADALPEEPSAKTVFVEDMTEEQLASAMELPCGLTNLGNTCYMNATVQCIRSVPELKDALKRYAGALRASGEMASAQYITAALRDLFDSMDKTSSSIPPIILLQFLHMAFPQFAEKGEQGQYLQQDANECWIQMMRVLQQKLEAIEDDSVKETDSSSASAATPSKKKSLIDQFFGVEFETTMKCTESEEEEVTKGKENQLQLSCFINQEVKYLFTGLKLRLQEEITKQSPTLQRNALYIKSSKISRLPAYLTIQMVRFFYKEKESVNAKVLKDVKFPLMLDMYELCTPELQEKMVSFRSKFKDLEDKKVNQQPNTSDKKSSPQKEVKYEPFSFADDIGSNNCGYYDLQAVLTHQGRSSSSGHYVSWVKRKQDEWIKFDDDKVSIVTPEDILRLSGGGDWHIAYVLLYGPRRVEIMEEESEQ

Regarding `CNc1nc2ccccn2c1-c1ccc(O)cc1`, the IC50 (as a rule, the point on the concentration scale where inhibition reaches its midpoint) was 16 µM in data set [1], above 100 µM in [2], above 100 µM in data set [3] and above 100 µM in data set [4]. Also, the Ratio IC50 in the data set listed under Homo sapiens [5], in the data set listed under Homo sapiens [6] and in the data set filed under Homo sapiens [7] was above 2 each time.

For `Nc1nc2c(C(F)(F)F)cccn2c1-c1ccc(O)cc1`, the IC50 was 26 µM in [1], above 100 µM in data set [2], above 100 µM in [3] and above 100 µM in [4]. The Ratio IC50 in the data set listed under Homo sapiens [5], in the data set listed under Homo sapiens [6] and in the data set filed under Homo sapiens [7] was above 2 in each case.

As to `COc1ccc(-c2c(N)nc3ccccn23)cc1`, the IC50 in data set [1] was 38 µM; in data set [2] it was above 100 µM; in data set [3], above 100 µM; in data set [4], above 100 µM. In addition, the Ratio IC50 in the data set filed under Homo sapiens [5], in the data set listed under Homo sapiens [6] and in the data set listed under Homo sapiens [7] was above 2 each time.

With `Cc1ccc2nc(N)c(-c3ccc(O)cc3)n2c1`, the IC50 is 39 µM in [1], above 100 µM in data set [2], above 100 µM in data set [3] and above 100 µM in data set [4]. The Ratio IC50 in the data set filed under Homo sapiens [5], in the data set filed under Homo sapiens [6] and in the data set filed under Homo sapiens [7] was above 2 throughout.

For the compound `CCc1c(-c2ccc(C(=O)NC)nc2)cnc(N)c1-c1ccc(O)cc1`, the IC50 in data set [8] worked out at 1.3 µM.

On to `Cc1cccn2c(-c3ccc(O)cc3)c(N)nc12`, for which the half-maximal inhibitory concentration (IC50) is 8.8 µM in data set [1], above 100 µM in data set [2], above 100 µM in [3] and above 100 µM in data set [4]. Further, the Ratio IC50 in the data set listed under Homo sapiens [5], in the data set filed under Homo sapiens [6] and in the data set listed under Homo sapiens [7] was above 2 in each case.

Consider `CC(C)Nc1nc2ccccn2c1-c1ccc(O)cc1`, for which the IC50 in [1] is 7.9 µM; in data set [2], above 100 µM; in [3], above 100 µM; in [4], above 100 µM. In addition, the Ratio IC50 in the data set filed under Homo sapiens [5], in the data set listed under Homo sapiens [6] and in the data set listed under Homo sapiens [7] was above 2 each time.

For the compound `CC(=O)Nc1nc2ccccn2c1-c1ccc(O)cc1`, the IC50 is 34 µM in [1], above 100 µM in data set [2], above 100 µM in [3] and above 100 µM in data set [4]. Moreover, the solubility (as a rule, the dissolved amount per volume that the medium holds) in data set [9] is above 800 µM. Besides, the result in [10], in data set [14] and in [15] was Active. Further, the dissociation constant (Kd) – broadly, the free concentration of one partner at which half of the binding sites on the other are occupied at equilibrium, for simple one-to-one binding – in data set [11] is 680 µM; in data set [12], 580 µM; in [13] it was 540 µM.

Regarding `CN(C)c1nc2ccccn2c1-c1ccc(O)cc1`, the concentration for half-maximal inhibition (IC50) is 24 µM in [1], above 100 µM in data set [2], above 100 µM in data set [3] and above 100 µM in data set [4]. The Ratio IC50 in the data set filed under Homo sapiens [5], in the data set filed under Homo sapiens [6] and in the data set listed under Homo sapiens [7] was above 2 each time.

With `Nc1nc2ccccn2c1-c1ccc(O)cc1`, the 50% inhibitory concentration (IC50) is 24 µM in data set [1], above 100 µM in data set [2], above 100 µM in [3] and above 100 µM in data set [4]. The Ratio IC50 in the data set filed under Homo sapiens [5], in the data set filed under Homo sapiens [6] and in the data set filed under Homo sapiens [7] was above 2 in each case.

In the case of `Nc1nc2ccc(C(F)(F)F)cn2c1-c1ccc(O)cc1`, the 50% inhibitory concentration (IC50) in [1] is 48 µM; in data set [2] it was above 100 µM; in data set [3], above 100 µM; in data set [4], above 100 µM. Also, the Ratio IC50 in the data set listed under Homo sapiens [5], in the data set filed under Homo sapiens [6] and in the data set filed under Homo sapiens [7] was above 2 each time.

With `Nc1nc2cc(C3CCNCC3)ccn2c1-c1ccc(O)cc1`, the 50% inhibitory concentration (IC50) is 5.3 µM in [1], above 100 µM in [2], above 100 µM in [3] and above 100 µM in data set [4]. In addition, the Ratio IC50 in the data set filed under Homo sapiens [5], in the data set listed under Homo sapiens [6] and in the data set listed under Homo sapiens [7] was above 2 each time.

On to `Nc1nc2cc(C(F)(F)F)ccn2c1-c1ccc(O)cc1`, for which the IC50 in data set [1] was 42 µM; in data set [2] it was above 100 µM; in [3], above 100 µM; in data set [4], above 100 µM. Further, the Ratio IC50 in the data set listed under Homo sapiens [5], in the data set listed under Homo sapiens [6] and in the data set listed under Homo sapiens [7] was above 2 throughout.

Consider `Cc1ccn2c(-c3ccc(O)cc3)c(N)nc2c1`, for which the IC50 in data set [1] is 27 µM; in data set [2], above 100 µM; in data set [3], above 100 µM; in [4], above 100 µM. The Ratio IC50 in the data set filed under Homo sapiens [5], in the data set listed under Homo sapiens [6] and in the data set listed under Homo sapiens [7] was above 2 in each case.

Turning to `O=C(C[C@@H](C(F)F)n1ccc(F)n1)N1CCC(O)(Cn2cnc3c(cnn3-c3ccc(F)cc3)c2=O)CC1`, the IC50 in [16] was found to be 0.052 µM.
